# From US20120065126A1, “Pharmaceutical Compositions Containing Antifungal Peptides” (BASF SE, priority 2009, published 2012)
# Columns and labels:
# Test in all cases: P18 in pharmaceutical base formulation (CFU)
# M. furfur (DSM 6170) = type: cell-based, Malassezia furfur; details: for Colony forming units after the incubation time specified: 10 000 ppm in the formulation, mixed 1:9 with suspension
# Method: (§1) The aim of the experiment was to study the effect of a pharmaceutical base formulation containing the P18 peptide ingredient (P18 sequence H-KWKLFKKIPKFLHLAKKF-NH2 (Bachem AG, Switzerland)) on further fungi and bacteria. For this purpose, the following base formulation was used: […]
# (§2) 1% hydroxycellulose 10% propylene glycol made up with water.
# (§3) Based on the base formulation, formulations containing 10 000 ppm of P18 peptide were prepared from a 20% concentrate solution.
# (§4) The effect of the formulations on S. epidermidis (DSM 1798), M. furfur (DSM 6170) and T. rubrum (DSM 21146) was studied.
# M472 growth medium according to DSMZ for M. furfur 40 g of malt extract (Becton, Dickinson and Company, Sparks, USA) 20 g of ox bile (Merck, Darmstadt, Germany)
# For M. furfur, 5 ml of medium were inoculated with the microorganism and incubated at 30° C. and 200 rpm overnight.
# 1.5 ml reaction vessels were each filled with 1 ml of medium and inoculated with the fungal or bacterial suspension from the overnight culture such that the resulting suspensions at the start of the experiment had been adjusted to an optical density, measured at 600 nm, of 0.1. The resulting suspension was mixed with the formulations in a ratio of 1:9 (formulation: microbial suspension). 1 μl of the culture was diluted with 20 μl of medium after 5 minutes and 60 minutes and then plated out. After incubation over 24 hours, the colonies on the plates were counted.
# [1] = test system: E. coli (Stratagene, BLR); type: cell-based, Escherichia coli; details: mixed 1:9 with suspension
# Method: The aim of the experiment was to study the effect of a pharmaceutical base formulation containing the P18 peptide ingredient (P18 sequence H-KWKLFKKIPKFLHLAKKF-NH2 (Bachem AG, Switzerland)). For this purpose, the following base formulation was used: […]
# as §2
# Based on the base formulation, formulations with rising P18 concentrations (500 ppm to 10 000 ppm) were prepared from a 20% concentrate solution.
# The effect of the formulations on E. coli (Stratagene, BLR) was studied.
# LB growth medium (Becton, Dickinson and Company, Sparks, USA) […] make up to 1 liter, set pH 7
# The growth test was effected as follows: 5 ml of LB medium were inoculated with E. coli and incubated at 37° C. and 200 rpm overnight.
# 1.5 ml reaction vessels were each filled with 1 ml of LB medium and inoculated with the E. coli suspension from the overnight culture such that an optical density, measured at 600 nm, of 0.1 was obtained at the start of the experiment. The resulting E. coli suspension was mixed in a ratio of 1:9 (formulation: E. coli suspension) with the formulations. 1 μl of the culture was diluted with 20 μl of LB medium after 5 minutes, 10 minutes, 20 minutes and 60 minutes, and then plated out. After incubation over 24 hours, the colonies on the plates were counted.
# [2] = test system: S. epidermidis (DSM 1798); type: cell-based, Staphylococcus epidermidis; details: 10 000 ppm in the formulation, mixed 1:9 with suspension
# Method: as §1, §2, §3, §4
# TSBY growth medium for S. epidermidis Ready-made TSB medium (Becton, Dickinson and Company, Sparks, USA) 17 g of pancreatin-degraded casein 3 g of pancreatin-degraded soya 2.5 g of dextrose 5 g of sodium chloride 2.5 g of dipotassium phosphate 3 g of yeast extract (Becton, Dickinson and Company, Sparks, USA) make up to 1 liter, set pH 7 […]
# 1.5 ml reaction vessels were each filled with 1 ml of medium and inoculated with the fungal or bacterial suspension from the overnight culture such that the resulting suspensions at the start of the experiment had been adjusted to an optical density, measured at 600 nm, of 0.1. […] After incubation over 24 hours, the colonies on the plates were counted.
substance,measurement,setting,value
"H-KWKLFKKIPKFLHLAKKF-NH2 [P18, H-KWKLFKKIPKFLHLAKKF-NH2]",Colony forming units after the incubation time specified,M. furfur (DSM 6170); 5 minutes,671 ± 13 CFU
same,Colony forming units after the incubation time specified,M. furfur (DSM 6170); 60 minutes,2 ± 2 CFU
same,Reduction in the cell count,"M. furfur (DSM 6170); treatment with a formulation which comprised P18, highest reduction of Example 22",> 300 fold
same,Colony forming units after the incubation time specified,"[1]; 10 000 ppm in the formulation, 5 minutes",1778 ± 314 CFU
same,Colony forming units after the incubation time specified,"[1]; 10 000 ppm in the formulation, 10 minutes",901 ± 120 CFU
same,Colony forming units after the incubation time specified,"[1]; 10 000 ppm in the formulation, 20 minutes",226 ± 286 CFU
same,Colony forming units after the incubation time specified,"[1]; 10 000 ppm in the formulation, 60 minutes",7.75 ± 9.5 CFU
same,Colony forming units after the incubation time specified,"[1]; 500 ppm in the formulation, 5 minutes",2000 ± 0 CFU
same,Colony forming units after the incubation time specified,"[1]; 500 ppm in the formulation, 10 minutes",2000 ± 0 CFU
same,Colony forming units after the incubation time specified,"[1]; 500 ppm in the formulation, 20 minutes",2000 ± 0 CFU
same,Colony forming units after the incubation time specified,"[1]; 500 ppm in the formulation, 60 minutes",709 ± 451 CFU
same,Colony forming units after the incubation time specified,"[1]; 1000 ppm in the formulation, 5 minutes",2000 ± 0 CFU
same,Colony forming units after the incubation time specified,"[1]; 1000 ppm in the formulation, 10 minutes",2000 ± 0 CFU
same,Colony forming units after the incubation time specified,"[1]; 1000 ppm in the formulation, 20 minutes",1619 ± 534 CFU
same,Colony forming units after the incubation time specified,"[1]; 1000 ppm in the formulation, 60 minutes",332 ± 236 CFU
same,Colony forming units after the incubation time specified,"[1]; 2000 ppm in the formulation, 5 minutes",2000 ± 0 CFU
same,Colony forming units after the incubation time specified,"[1]; 2000 ppm in the formulation, 10 minutes",2000 ± 0 CFU
same,Colony forming units after the incubation time specified,"[1]; 2000 ppm in the formulation, 20 minutes",733 ± 349 CFU
same,Colony forming units after the incubation time specified,"[1]; 2000 ppm in the formulation, 60 minutes",93 ± 127 CFU
same,Colony forming units after the incubation time specified,"[1]; 5000 ppm in the formulation, 5 minutes",2000 ± 0 CFU
same,Colony forming units after the incubation time specified,"[1]; 5000 ppm in the formulation, 10 minutes",1225 ± 339 CFU
same,Colony forming units after the incubation time specified,"[1]; 5000 ppm in the formulation, 20 minutes",411 ± 516 CFU
same,Colony forming units after the incubation time specified,"[1]; 5000 ppm in the formulation, 60 minutes",29 ± 36 CFU
same,Colony forming units after the incubation time specified,[2]; 5 minutes,790 ± 393 CFU
same,Colony forming units after the incubation time specified,[2]; 60 minutes,513 ± 20 CFU
